The Deep4Chem optical property database

Test: photoluminescence quantum yield (fraction); solvent given as SMILES

O=C(c1ccc(N(c2ccccc2)c2ccccc2)cc1)[C@H]1[C@H](c2ccc(F)cc2)C[C@](O)(c2ccccn2)C[C@]1(O)c1ccccn1 showed a photoluminescence quantum yield (in C1CCOC1) of 0.4, a photoluminescence quantum yield (in CC#N) of 0.02 and a photoluminescence quantum yield (in CCO) of 0.01. It also gave a photoluminescence quantum yield (in CCOC(C)=O) of 0.34, a photoluminescence quantum yield (in CN(C)C=O) of 0.02 and a photoluminescence quantum yield (in ClCCl) of 0.21. The photoluminescence quantum yield (in c1ccccc1) was 0.74.
With CCN(CC)c1ccc(C=Cc2nc3nc4ccccc4nc3s2)c(OC)c1 the photoluminescence quantum yield (in CCO) was 0.32.
For CCCCN(CCCC)c1ccc(C#Cc2cc(C#Cc3ccc(N(CCCC)CCCC)cc3)c(C#Cc3ccc(C(F)(F)F)cc3)cc2C#Cc2ccc(C(F)(F)F)cc2)cc1, the photoluminescence quantum yield (in ClCCl) was 0.38.
COC(=O)c1[nH]c(-c2ccccc2)c2nnc3ccsc3c12 gave a photoluminescence quantum yield (in ClCCl) of 0.111.
CC(C)(C)c1ccc(C#Cc2cc3ccc4cc(C#Cc5ccc(C(C)(C)C)cc5)cc5ccc(c2)c3c45)cc1 gave a photoluminescence quantum yield (in ClCCl) of 0.14.
With N#Cc1ccc(-c2cnc3cccc(-c4ccccc4)n23)cc1 the photoluminescence quantum yield (in ClCCl) was 0.19.
In the case of CCn1c2ccccc2c2cc(-c3cc(-c4ccc5c(c4)c4ccccc4n5CC)ncn3)ccc21, the photoluminescence quantum yield (in C1CCOC1) is reported as 0.44, the photoluminescence quantum yield (in CCOC(C)=O) is reported as 0.8 and the photoluminescence quantum yield (in CN(C)C=O) is reported as 0.76. For the same compound, the photoluminescence quantum yield (in Cc1ccccc1) was 0.73 and the photoluminescence quantum yield (in ClCCl) was 0.75.
For Cc1cc2nc3[nH]c(=O)[nH]c(=O)c3nc2cc1C, the photoluminescence quantum yield (in CC#N) was 0.028.
With Fc1ccccc1-c1nc2sc3ccccc3c2s1 the photoluminescence quantum yield (in CS(C)=O) was 0.64.
With CCCCCCCN1C(=CC2=C([O-])C(=CC3=[N+](CCCCCCC)c4ccccc4C3(C)C)C2=C(C#N)C#N)C(C)(C)c2ccccc21 the photoluminescence quantum yield (in C1COCCO1) was 0.19, the photoluminescence quantum yield (in CCO) was 0.13 and the photoluminescence quantum yield (in CN(C)C=O) was 0.08. The photoluminescence quantum yield (in ClC(Cl)Cl) was 0.18.
Compound CCC(C)(C)c1ccc(-c2ccc(-c3ccc(C(C)(C)CC)cc3)cc2)cc1 has a photoluminescence quantum yield (in C1COCCO1) of 0.85.
Cc1ccc(C)n1-c1ccc(C#N)cc1 gave a photoluminescence quantum yield (in C1CCOC1) of 0.025, a photoluminescence quantum yield (in CCCCCC) of 0.026 and a photoluminescence quantum yield (in CCCCCl) of 0.035. It also gave a photoluminescence quantum yield (in CCOCC) of 0.019 and a photoluminescence quantum yield (in ClCCl) of 0.033.
Compound c1ccc(-c2nc(-c3ccccc3)c(N(c3ccccc3)c3ccccc3)[se]2)cc1 has a photoluminescence quantum yield (in ClC(Cl)Cl) of 0.068.
Compound CC1=CC(C)=[N+]2C1=C(c1ccccc1)c1c(C)cc(/C=C/c3ccccc3)n1[B-]2(F)F has a photoluminescence quantum yield (in CC#N) of 0.7.
CNc1ccc2c(c1)-c1ccccc1C2=O showed a photoluminescence quantum yield (in C1CCCCC1) of 0.045, a photoluminescence quantum yield (in CC#N) of 0.064 and a photoluminescence quantum yield (in CCO) of 0.0065. For the same compound, the photoluminescence quantum yield (in c1ccccc1) was 0.19.
With CCOC(=O)CN1C(=O)C2=C(c3ccc(C#N)cc3)N(CC(=O)OCC)C(=O)C2=C1c1ccc(C#N)cc1 the photoluminescence quantum yield (in CC#N) was 0.32, the photoluminescence quantum yield (in CS(C)=O) was 0.72 and the photoluminescence quantum yield (in Cc1ccccc1) was 0.29.
Compound Cc1nc(-c2ccc(-n3c4ccccc4c4ccccc43)cc2)cc(-c2ccc(-n3c4ccccc4c4ccccc43)cc2)n1 has a photoluminescence quantum yield (in C1CCOC1) of 0.61, a photoluminescence quantum yield (in CN(C)C=O) of 0.73 and a photoluminescence quantum yield (in Cc1ccccc1) of 0.65. For the same compound, the photoluminescence quantum yield (in ClC(Cl)Cl) was 0.61.
Cc1cc(C#N)ccc1N1c2ccccc2C(c2ccccc2)(c2ccccc2)c2ccccc21 gave a photoluminescence quantum yield (in Cc1ccccc1) of 0.12.
Compound CCCCCCCCCc1c2ccccc2cc2c1oc1c3oc4c5oc6cc7ccccc7cc6c5c5ccccc5c4c3c3ccccc3c21 has a photoluminescence quantum yield (in C1CCOC1) of 0.75.
CCN(CC)c1ccc2cc(-c3nc4cc(C(=O)Nc5ccccc5Cl)ccc4o3)c(=O)oc2c1 gave a photoluminescence quantum yield (in ClCCl) of 0.23.
For Nc1cccc2c1-c1ccccc1C2=O, the photoluminescence quantum yield (in C1CCCCC1) was 0.035, the photoluminescence quantum yield (in CC#N) was 0.012 and the photoluminescence quantum yield (in CCO) was 0.00024. It also gave a photoluminescence quantum yield (in c1ccccc1) of 0.074.
CCCCC(CC)CN1C(=O)c2cccc3c(C#Cc4ccc(N(c5ccc(C#Cc6ccc7c8c(cccc68)C(=O)N(CC(CC)CCCC)C7=O)cc5)c5ccc(C#Cc6ccc7c8c(cccc68)C(=O)N(CC(CC)CCCC)C7=O)cc5)cc4)ccc(c23)C1=O (stereo not given) gave a photoluminescence quantum yield (in C1CCCCC1) of 0.064, a photoluminescence quantum yield (in C1CCOC1) of 0.027 and a photoluminescence quantum yield (in CC#N) of 0.111. The photoluminescence quantum yield (in Cc1ccccc1) was 0.053 and the photoluminescence quantum yield (in ClC(Cl)Cl) was 0.041.
With c1ccc(-c2nnc(-c3cc(-n4c5ccccc5c5ccccc54)c(-n4c5ccccc5c5ccccc54)cc3-c3nnc(-c4ccccc4)o3)o2)cc1 the photoluminescence quantum yield (in Cc1ccccc1) was 0.383.
